# Earlier results, collected in patent EP2151446B1, “Process for the preparation of bidentate schiff base ruthenium catalysts containing a salicylaldimine-type ligand” (Rimtec Corporation, priority 2008, dated 2010).
# Settings: in water
row,pKb,Compound
1,about 3.69,O=C([O-])[O-].[K+].[K+] [Entry K2CO3]
2,about 3.69,O=C([O-])[O-].[Cu+2] [CuCO3]
3,about 3.69,O=C([O-])[O-].[Li+].[Li+] [Li2CO3]
4,about 3.69,O=C([O-])[O-].[Na+].[Na+] [Na2CO3]
